For 16 compounds, SC150 and IC50 results are on record in EP4737449A1 (Changchun Genescience Pharmaceutical Co., Ltd., priority 2023, dated 2025).

The target of one assay is T1, p53-Y220C mutant protein (Homo sapiens, UniProt P04637, Y220C).
T1 construct: The recombinant Y220C p53 DBD protein with his-tag
Nature of the assay: In vitro DNA binding activity assay (TR-FRET). The format is biochemical. As to conditions: concentration required to increase the binding activity of protein to DNA by 50%. The method in brief:
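His-tagged Y220C p53 DBD was equilibrated with compound 60 min at room temperature, then biotin-DNA, anti-6His-Eu and streptavidin-d2 were added and incubated overnight in the dark. TR-FRET 665/615 nm ratio, background-corrected, was expressed as % activity versus vehicle; SC150 is the concentration raising DNA binding by 50%.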
(Time-resolved FRET reads energy transfer from a long-lived donor to a nearby acceptor.)

Assay [1] has as its target CYP 3A4 enzyme in human liver microsomes (Homo sapiens, UniProt P08684). Nature of the assay: CYP3A4 inhibition experiment in human liver microsomes. The method, then:
The inhibitory effects of the test compounds on CYP 3A4T (with testosterone as substrate) and 3A4M (with midazolam as substrate) in human liver microsomes were evaluated in vitro to assess the medication safety of the compounds.
This study used the human liver microsome system and the cytochrome P450 enzyme probe substrate recommended by FDA guidelines for in vitro drug interaction studies to investigate the inhibition of the CYP 3A4 enzyme in human liver microsomes by the test compounds.
Test group (TG): Human liver microsomes were incubated with different concentrations of test compounds, NADPH (final concentration 2.00 mM) and probe substrates of different sub-enzymes (Table 4) for 5 min.
Positive control group (PC): Human liver microsomes were incubated with inhibitors (Table 4), NADPH (final concentration 2.00 mM) and probe substrates of different sub-enzymes (Table 4) for 5 min. Table 4 Probe substrates of sub-enzymes, inhibitors and incubation systems
The system was pre-incubated at 37°C for 5 min, and then 15 µL of 8 mM NADPH solution preheated at 37°C for 5-10 min to start the reaction. After incubation of the 96-well plate at 37°C for 5 min, 180 µL of acetonitrile:methanol (ACN:MeOH=1:1) solution containing internal standard (IS) was added to terminate the reaction. […] 80 µL of the supernatant was taken, added to 120 µL of ultrapure water, shaken evenly, and then detected by LC-MS/MS.
199 µL of 0.2 mg/mL HLM and 1 µL of 1 mM positive control inhibitor (ketoconazole) working solutions were taken and mixed evenly. 30 µL of the drug-containing liver microsome solution was taken and added to a 96-well plate, then 10 µL of substrate working solution (20 µM midazolam) was added, in duplicate. The system was pre-incubated at 37°C for 5 min, and then 15 µL of 8 mM NADPH solution preheated at 37°C for 5-10 min to start the reaction. After incubation of the 96-well plate at 37°C for 5 min, 180 µL of ACN:MeOH(1:1) solution containing IS was added to terminate the reaction. […] 80 µL of the supernatant was taken, added to 120 µL of ultrapure water, shaken evenly, and then detected by LC-MS/MS.
4.2.5.1 The relative activity of CYP450 sub-enzymes at different concentrations was calculated by dividing the peak area ratio (analyte peak area/internal standard peak area) of metabolites in the presence of the test sample or positive control by the peak area ratio of metabolites in the solvent control sample in the absence of the test article or positive control, according to the following formula: [formula] [formula]
4.2.5.2 Half maximal inhibitory concentration (IC50) was obtained by fitting according to the following model formula using Prism software: Y = Bottom + (Top−Bottom)/(1+10^(∧)((LogIC50−X)×HillSlope)) [formula]
X is the test sample concentration converted to logarithm (Log µM), Y is the relative activity (% of NC), Bottom and Top represent the percentage of enzyme activity at the bottom platform and top platform of the curve, respectively, and HillSlope represents the slope; to optimize the fitting effect, the use of other (nonlinear) dose-response models for fitting is not considered as a deviation from the protocol.

The next assay concerns NUGC-3 cells. The assay is described as follows: NUGC-3 cell proliferation assay (CTG, 7 days). It counts as cell-based, human. The gist of the method:
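Cells (200/well) in 1640 medium with 10% serum exposed to 10-point, 3-fold DMSO dilutions (duplicates) for 7 days at 37°C. Viability read by CellTiter-Glo luminescence; % inhibition normalized to DMSO and blank, IC50 from variable-slope nonlinear fit.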

Where [2] appears, read: CYP 3A4M IC50, human liver microsomes, midazolam as substrate.
Where [3] appears, read: CYP 3A4T IC50, human liver microsomes, testosterone as substrate.
Setting [4] is: Homo sapiens, NUGC-3, 168 h, NUGC-3 cell proliferation, 7 days, CTG, read-out: IC50.

Where two headings read alike, the source gives them in different places. Where only a bound is given, the exact number is not on record here.

Chain of CYP 3A4 enzyme in human liver microsomes (P08684 whole entry): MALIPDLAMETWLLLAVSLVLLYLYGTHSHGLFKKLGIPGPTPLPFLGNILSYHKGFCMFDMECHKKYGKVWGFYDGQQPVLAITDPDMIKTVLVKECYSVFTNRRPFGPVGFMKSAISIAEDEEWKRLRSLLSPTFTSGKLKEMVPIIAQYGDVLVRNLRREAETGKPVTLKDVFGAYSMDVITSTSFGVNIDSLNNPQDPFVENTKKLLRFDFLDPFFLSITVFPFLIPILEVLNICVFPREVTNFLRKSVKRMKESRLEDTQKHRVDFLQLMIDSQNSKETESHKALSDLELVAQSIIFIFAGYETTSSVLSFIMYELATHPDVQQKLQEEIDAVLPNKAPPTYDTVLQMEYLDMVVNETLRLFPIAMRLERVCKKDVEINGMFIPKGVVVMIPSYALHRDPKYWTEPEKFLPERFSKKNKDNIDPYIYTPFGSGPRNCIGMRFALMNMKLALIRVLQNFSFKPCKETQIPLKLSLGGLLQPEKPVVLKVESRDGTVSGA

Consider `CN1CC[C@@H](Nc2cccc3c(CC(F)(F)F)c(C#CCNC(=O)c4cnn5c4COCC5)nn23)[C@@H](F)C1` [Compound 274, N-[3-(7-{[(3S,4R)-3-fluoro-1-methylpiperidin-4-yl]amino}-3-(2,2,2-trifluoroethyl)pyrazolo[1,5-a]pyridin-2-yl)prop-2-yn-1-yl]-6,7-dihydro-4H-pyrazolo[5,1-c][1,4]oxazine-3-carboxamide], for which the SC150 at p53-Y220C mutant protein is 12 nM. In addition, the 50% inhibitory concentration (IC50) (in general, the concentration that inhibits the measured activity by half) is more than 30000 nM in assay [1] (setting [2]), more than 30000 nM in assay [1] (setting [3]) and 611 nM with NUGC-3 cells (setting [4]).
In the case of `CN1CC[C@@H](Nc2cccc3c(CC(F)(F)F)c(C#CCNC(=O)c4cnn(C56CC(C5)C6)c4N)nn23)[C@@H](F)C1` [Compound 289, 5-amino-1-(dicyclo[1.1.1]pent-1-yl)-N-[3-(7-{[(3S,4R)-3-fluoro-1-methylpiperidin-4-yl]amino}-3-(2,2,2-trifluoroethyl)pyrazolo[1,5-a]pyridin-2-yl)prop-2-yn-1-yl]-1H-pyrazole-4-carboxamide], on p53-Y220C mutant protein, the SC150 was 5 nM. The IC50 in assay [1] (setting [2]) stood at 12900 nM; in assay [1] (setting [3]) it was 13200 nM; with NUGC-3 cells (Homo sapiens, NUGC-3, 168 h) it was 182 nM.
`CCn1cc(C(=O)NCC#Cc2nn3c(N[C@@H]4CCN(C)C[C@@H]4F)cccc3c2CC(F)(F)F)cn1` [Compound 004, 1-ethyl-N-[3-(7-{[(3S,4R)-3-fluoro-1-methylpiperidin-4-yl]amino}-3-(2,2,2-trifluoroethyl)pyrazolo[1,5-a]pyridin-2-yl)prop-2-yn-1-yl]-1H-pyrazole-4-carboxamide] had an SC150 at p53-Y220C mutant protein of 6 nM. Also, the IC50 in assay [1] (setting [2]) and in assay [1] (setting [3]) was more than 30000 nM throughout.
The compound `CN1CC[C@@H](Nc2cccc3c(CC(F)(F)F)c(C#CCNC(=O)c4cnn(C5(C)CC5)c4N)nn23)[C@@H](F)C1` [Compound 263, 5-amino-N-[3-(7-{[(3S,4R)-3-fluoro-1-methylpiperidin-4-yl]amino}-3-(2,2,2-trifluoroethyl)pyrazolo[1,5-a]pyridin-2-yl)prop-2-yn-1-yl]-1-(1-methylcyclopropyl)-1H-pyrazole-4-carboxamide] returned an SC150 on p53-Y220C mutant protein of 4 nM. Moreover, the IC50 in assay [1] (setting [2]) was more than 30000 nM; in assay [1] (setting [3]), 16400 nM; in the assay on NUGC-3 cells (setting [4]), 268 nM.
`COC(C)(C)Cn1cc(C(=O)NCC#Cc2nn3c(N[C@@H]4CCN(C)C[C@@H]4F)cccc3c2CC(F)(F)F)cn1` [Compound 039, N-[3-(7-{[(3S,4R)-3-fluoro-1-methylpiperidin-4-yl]amino}-3-(2,2,2-trifluoroethyl)pyrazolo[1,5-a]pyridin-2-yl)prop-2-yn-1-yl]-1-(2-methoxy-2-methylpropyl)-1H-pyrazole-4-carboxamide]: on p53-Y220C mutant protein, the SC150 is 10 nM. Moreover, the half-maximal inhibitory concentration (IC50) in assay [1] (setting [2]) stood at 20200 nM; in assay [1] (setting [3]) it was 27800 nM.
`CN1CC[C@@H](Nc2cccc3c(CC(F)(F)F)c(C#CCNC(=O)c4cc(F)n(C)c4)nn23)[C@@H](F)C1` [Compound 312, 5-fluoro-N-[3-(7-{[(3S,4R)-3-fluoro-1-methylpiperidin-4-yl]amino}-3-(2,2,2-trifluoroethyl)pyrazolo[1,5-a]pyridin-2-yl)prop-2-yn-1-yl]-1-methyl-1H-pyrrole-3-carboxamide] returned an SC150 on p53-Y220C mutant protein of 19 nM. Moreover, the concentration for half-maximal inhibition (IC50) in the assay with NUGC-3 cells (setting [4]) amounted to 1460 nM.
The corresponding values for `CN1CC[C@@H](Nc2cccc3c(CC(F)(F)F)c(C#CCNC(=O)c4cc5n(c4)CCC5)nn23)[C@@H](F)C1` [Compound 260, N-[3-(7-{[(3S,4R)-3-fluoro-1-methylpiperidin-4-yl]amino}-3-(2,2,2-trifluoroethyl)pyrazolo[1,5-a]pyridin-2-yl)prop-2-yn-1-yl]-2,3-dihydro-1H-pyrrolizine-6-carboxamide] are 18 nM and 1190 nM.
The corresponding values for `CN1CC[C@@H](Nc2cccc3c(CC(F)(F)F)c(C#CCNC(=O)c4cnn(CC5CCC5)c4N)nn23)[C@@H](F)C1` [Compound 284, 5-amino-1-(cyclobutylmethyl)-N-[3-(7-{[(3S,4R)-3-fluoro-1-methylpiperidin-4-yl]amino}-3-(2,2,2-trifluoroethyl)pyrazolo[1,5-a]pyridin-2-yl)prop-2-yn-1-yl]-1H-pyrazole-4-carboxamide] are 12 nM and 360 nM.
The corresponding values for `Cc1cc(C(=O)NCC#Cc2nn3c(N[C@@H]4CCN(C)C[C@@H]4F)cccc3c2CC(F)(F)F)c[nH]1` [Compound 272, N-[3-(7-{[(3S,4R)-3-fluoro-1-methylpiperidin-4-yl]amino}-3-(2,2,2-trifluoroethyl)pyrazolo[1,5-a]pyridin-2-yl)prop-2-yn-1-yl]-5-methyl-1H-pyrrole-3-carboxamide] are 13 nM and 1230 nM.
On p53-Y220C mutant protein, `COC(C)(C)Cn1ccc(C(=O)NCC#Cc2nn3c(N[C@@H]4CCN(C)C[C@@H]4F)cccc3c2CC(F)(F)F)c1` [Compound 300, N-[3-(7-{[(3S,4R)-3-fluoro-1-methylpiperidin-4-yl]amino}-3-(2,2,2-trifluoroethyl)pyrazolo[1,5-a]pyridin-2-yl)prop-2-yn-1-yl]-1-(2-methoxy-2-methylpropyl)-1H-pyrrole-3-carboxamide] gave an SC150 of 12 nM. For the same compound, the IC50 with NUGC-3 cells (setting [4]) was found to be 411 nM.
Turning to `CCC(C)(C)n1ncc(C(=O)NCC#Cc2nn3c(N[C@@H]4CCN(C)C[C@@H]4F)cccc3c2CC(F)(F)F)c1N` [Compound 351], on p53-Y220C mutant protein, the SC150 worked out at 7 nM. The results for the IC50 in assay [1] (setting [2]) and in assay [1] (setting [3]) were 18100 nM and 22000 nM, respectively.
The compound `CC(C1CC1)n1ncc(C(=O)NCC#Cc2nn3c(N[C@@H]4CCN(C)C[C@@H]4F)cccc3c2CC(F)(F)F)c1N` (single isomer, unassigned) [Compound 291A] had an SC150 at p53-Y220C mutant protein of 3 nM. The IC50 in the assay on NUGC-3 cells (NUGC-3 cell proliferation, 7 days, CTG, read-out: IC50) was found to be 166 nM.
`CN(C)C1CC[C@@H](Nc2cccc3c(CC(F)(F)F)c(C#CCNC(=O)c4cnn(C(C)(C)C)c4N)nn23)[C@@H](F)C1` (single isomer, unassigned) [Compound 358-A]: the SC150 on p53-Y220C mutant protein is 2 nM. In the assay on NUGC-3 cells (setting [4]), the IC50 is 123 nM.
For `Cc1ccc(C(=O)NCC#Cc2nn3c(N[C@@H]4CCN(C)C[C@@H]4F)cccc3c2CC(F)(F)F)cn1` [Compound 332, N-[3-(7-{[(3S,4R)-3-fluoro-1-methylpiperidin-4-yl]amino}-3-(2,2,2-trifluoroethyl)pyrazolo[1,5-a]pyridin-2-yl)prop-2-yn-1-yl]-6-methylnicotinamide], in that order: 29 nM and 1710 nM.
The corresponding values for `CN1CC[C@@H](Nc2cccc3c(CC(F)(F)F)c(C#CCNC(=O)c4ccc(C(C)(C)O)nc4)nn23)[C@@H](F)C1` [Compound 236, N-[3-(7-{[(3S,4R)-3-fluoro-1-methylpiperidin-4-yl]amino}-3-(2,2,2-trifluoroethyl)pyrazolo[1,5-a]pyridin-2-yl)prop-2-yn-1-yl]-6-(2-hydroxyprop-2-yl)pyridine-3-carboxamide] are 22 nM and 1280 nM.
With `CN1CC[C@@H](Nc2cccc3c(CC(F)(F)F)c(C#CCNC(=O)c4ccn5c4COCC5)nn23)[C@@H](F)C1` [Compound 301, N-[3-(7-{[(3S,4R)-3-fluoro-1-methylpiperidin-4-yl]amino}-3-(2,2,2-trifluoroethyl)pyrazolo[1,5-a]pyridin-2-yl)prop-2-yn-1-yl]-3,4-dihydro-1H-pyrrolo[2,1-c][1,4]oxazine-8-carboxamide], at p53-Y220C mutant protein, the SC150 amounted to 27 nM. Besides, the IC50 in the assay on NUGC-3 cells (setting [4]) was found to be 1190 nM.
